# Assay results as given in patent US11785950B2, “Use of dried chicory root to protect poultry and livestock against ectoparasites or as insect repellant” (Cosucra Groupe Warcoing S.A., priority 2017, dated 2023).
# Tests used:
# mites (Chorioptes bovis) = assay: Comparative trial vs Amitraz: mite count in skin scraping samples; type: in vivo; conditions: week 4; 10 animals per group
# Source text: (§1) Twenty Belgian Blue cattle (6 heifers and 14 cows) were used in this trial. Cattle with mild or severe visual signs of scabies infection were selected, tied, shaved, scored for scabies lesions (clinical index) and skin scraping samples were taken for counts of mites and lice. Next, the animals were divided into 2 groups, a control group and a treatment group, based on the results of the clinical index and mite—lice counts at the end of the pre-treatment phase. At the start of the treatment period, animals were housed in a tie-stable, shaved and tied to prevent physical contact with other animals.
# (§2) Control group: The animals in the positive control group were treated according to the standard ILVO (Flecmish Institute for Agriculture and Fishery) scabies prevention protocol which consisted of treatment with Amitraz (Tactic) and removal of the crusts, followed by a second treatment with interval of 10 days between both treatments. After the second treatment crusts were not removed.
# Treatment group: The animals in the treatment group were not treated with Amitraz (Tactic), but were fed the indicative daily dose of 200 g of dried chicory root composition per animal per day. […]
# Using microscopy, the numbers of mites and lice in each sample were counted and the types of mites and lice were identified by an expert at the Laboratory of Parasitology, Ghent University, Belgium. […]
# [1] = test system: scabies (dominantly caused by the mite Chorioptes bovis); assay: Comparative trial vs Amitraz: clinical index of scabies lesions; type: in vivo; set-up: key to clinical index, active lesions (4): % area with type 4 lesions = squares type 4/350*100; conditions: for clinical index, active lesions (4): week not given
# Source text: The whole trial lasted for 15 weeks and was subdivided in […]: a pre-treatment period of 9 weeks, a treatment period of 3 weeks, and a 3 week post-treatment period.
# The trial started with pre-treatment period of 9 weeks during which the animals were housed in a straw-bedded free stall and received no preventive treatment against scabies and lice. At the end of the pre-treatment period, the degree of scabies lesions (clinical index) and counts of mites and lice in skin-scraping samples were evaluated.
# as §1, §2
# Treatment group: The animals in the treatment group were not treated with Amitraz (Tactic), but were fed the indicative daily dose of 200 g of dried chicory root composition per animal per day. Said amount corresponds to roughly 1 to 2% of dried chicory root on the total feed. Dried chicory root composition was provided mixed through the daily dose of soybean meal and concentrate. The nutritional treatment with dried chicory root composition lasted for 3 consecutive weeks during which the animals receive their daily dose of dried chicory root composition. […]
# In the last week of the pre-treatment period (week 0) and every following week till the end of the post-treatment period, the clinical index was determined as a measure for scabies lesions. Per animal, the number, size and type of scabies lesions was determined using a scoring form.
# A distinction was made between dried, healing lesions (type 3) and wet, active lesions (type 4). The clinical index was calculated based on the total number of lesions using the formula: Area with lesions=total squares/350*100.
# In addition, an alternative clinical index was calculated based on the number of active lesions: Area with lesions type 4=squares type 4/350*100. […]
compound,measurement,setting,value
"Cc1ccc(/N=C/N(C)/C=N/c2ccc(C)cc2C)c(C)c1 [Tactic, Amitraz]",WBT samples positive for Chorioptes bovis,mites (Chorioptes bovis),3 samples
same,hock samples positive for Chorioptes bovis,mites (Chorioptes bovis),one
same,"clinical index, active lesions (4)",[1]; 3rd week pair of columns,0.0
same,"clinical index, active lesions (4)",[1]; 4th week pair of columns,0.0
same,"clinical index, active lesions (4)",[1]; 5th week pair of columns,0.0
same,"clinical index of Tactic group higher than that of dried chicory root group, 95% confidence maximum",[1]; equivalence test,≤ 15%
